Results as given in article PMC6009911, “Inhibition of human cytochromes P450 2A6 and 2A13 by flavonoids, acetylenic thiophenes and sesquiterpene lactones from Pluchea indica and Vernonia cinerea” (Journal of Enzyme Inhibition and Medicinal Chemistry, 2017).
Read-outs that look alike come from different tables or passages of the source.

Columns and labels:
Type in all cases: biochemical
[1] = molecular target: T1, CYP2A6 (Homo sapiens, UniProt P11509); test: Inhibition of CYP2A6-mediated nicotine metabolism; set-up: made in house; conditions: compound at IC50 value; nicotine 50 μM; 30 min; Supplemental Figure S2
T1 sequence (P11509 1-494): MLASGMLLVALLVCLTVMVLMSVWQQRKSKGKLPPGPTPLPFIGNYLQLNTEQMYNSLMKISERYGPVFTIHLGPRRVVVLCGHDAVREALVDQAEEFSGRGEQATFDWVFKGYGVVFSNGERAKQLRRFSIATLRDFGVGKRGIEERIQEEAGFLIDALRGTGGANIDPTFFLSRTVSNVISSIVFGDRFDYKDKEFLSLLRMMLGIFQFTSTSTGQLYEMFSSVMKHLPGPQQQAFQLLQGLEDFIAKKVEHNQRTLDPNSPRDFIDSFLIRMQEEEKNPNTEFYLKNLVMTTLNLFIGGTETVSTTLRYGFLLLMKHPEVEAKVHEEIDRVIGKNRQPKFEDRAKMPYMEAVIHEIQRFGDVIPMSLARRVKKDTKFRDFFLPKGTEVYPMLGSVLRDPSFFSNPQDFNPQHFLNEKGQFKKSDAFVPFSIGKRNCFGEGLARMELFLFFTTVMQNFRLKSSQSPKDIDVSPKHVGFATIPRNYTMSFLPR
Procedure: Supplementary Figure S2. Inhibition effects of thiophene 11 on CYP2A6-mediated […]
mediated nicotine metabolism (B). Nicotine metabolism in the presence and absence of inhibitory test compounds, at IC50 value, was performed by incubation of the reaction mixture with nicotine substrate (a final concentration of 50 μM) prior to initiation of each reaction with 50 μM NADPH at room temperature. Each reaction was terminated by addition of ice-cold acetronitrile at 30 min incubation and 50 pmol 7-hydroxycoumarin as internal standard was added. The reaction was centrifuged (12,000 rpm, 10 min, 4 °C) and 20 μl of each sample was analyzed on symmetry RP-C18 column (3.9×150 mm). Gradient condition was isocratic of 12% ACN: 2-propanol (7:3) in 10 mM potassium phosphate buffer (pH 7.4) at flow rate of 1 ml/min. The nicotine peak area in each reaction was compared with that of time zero. The enzyme activity was determined as percent substrate consumption over 30 min. The reactions were […]
(1 picture or pasted object on this page, not shown here)

[2] = molecular target: T2, CYP2A13 (Homo sapiens, UniProt Q16696); test: Effects of trapping agents and dialysis on inactivation of CYP2A13; conditions: CYP2A13 inhibition reaction mixture, probe coumarin, compound 5 µM
T2 construct: made in house
T2 sequence (Q16696 1-494): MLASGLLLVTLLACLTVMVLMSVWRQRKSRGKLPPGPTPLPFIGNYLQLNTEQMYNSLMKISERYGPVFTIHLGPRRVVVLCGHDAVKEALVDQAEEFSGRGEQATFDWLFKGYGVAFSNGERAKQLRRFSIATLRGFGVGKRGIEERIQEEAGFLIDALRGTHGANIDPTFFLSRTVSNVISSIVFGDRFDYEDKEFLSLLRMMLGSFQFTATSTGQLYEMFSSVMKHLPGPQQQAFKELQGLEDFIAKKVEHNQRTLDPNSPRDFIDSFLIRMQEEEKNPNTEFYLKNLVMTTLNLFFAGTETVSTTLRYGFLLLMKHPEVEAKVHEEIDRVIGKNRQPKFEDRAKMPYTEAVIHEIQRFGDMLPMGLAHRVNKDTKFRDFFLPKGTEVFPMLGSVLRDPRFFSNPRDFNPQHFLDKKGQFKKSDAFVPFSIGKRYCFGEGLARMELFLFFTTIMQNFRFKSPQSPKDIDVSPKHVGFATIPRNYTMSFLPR
Method in brief: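 Recombinant enzyme preincubated with inhibitor and NADPH for 0, 10, 20 and 30 min; KI and kinact taken from double-reciprocal plots of kobs versus inhibitor concentration by linear regression. Reversibility probed by dialysis and by adding trapping agents (GSH, semicarbazide, catalase or potassium ferricyanide). Methoxsalen served as mechanism-based control.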

[3] = molecular target: T2, CYP2A13; test: Inhibition of CYP2A13-mediated coumarin 7-hydroxylation, enzymatic reconstitution assay
Method in brief: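 Purified recombinant CYP2A6 or CYP2A13 reconstituted with rat CYPOR; coumarin 7-hydroxylation read by 7-hydroxycoumarin fluorescence (ex 355/em 460 nm), inhibition as % of vehicle control with IC50 fitted.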

[4] = molecular target: T1, CYP2A6; test: Effects of trapping agents and dialysis on inactivation of CYP2A6; set-up: made in house; conditions: CYP2A6 inhibition reaction mixture, probe coumarin, compound 5 µM
Procedure: (§1) MBI requires NADPH and time to generate reactive intermediate as inhibitor and ultimately inactivates the enzyme. MBI was evaluated by pre-incubation with each test inhibitor in the reaction at different time periods (0, 10, 20 and 30 min) in the presence of NADPH for time-dependent assay, as described. The apparent inactivation constants, KI and Kinact, were obtained from double reciprocal plots of kobs versus inhibitor concentrations by linear regression analysis on GraphPad Prism 5. Methoxsalen was used as a control mechanism-based inhibitor for time- and NADPH-dependent inhibition assays.
To explore whether inactivation of CYP2As by thiophenes 9–11 and of CYP2A13 by hirsutinolides 5-8 could be reversed, the removal of reversible inhibitory compounds by dialysis and addition of trapping agents (GSH, semicarbazide, catalase or potassium ferricyanide) in the inhibition reaction mixture were performed. […] Similarly, mechanism-based inactivation of both CYP2A6 and CYP2A13 by thiophenes 9–11 could not be reversed (Table 3).

[5] = molecular target: T1, CYP2A6; test: Inhibition of CYP2A6-mediated coumarin 7-hydroxylation, enzymatic reconstitution assay; set-up: made in house
Procedure: Inhibitory effect of plant extracts, fractions, subfractions and constituents was determined by inhibition assay on CYP2A6- and CYP2A13-mediated coumarin 7-hydroxylation. The recombinant human CYP2A6, CYP2A13 and rat NADPH-dependent cytochrome P450 oxidoreductase (CYPOR) proteins were expressed, purified, according to the methods previously described. […] Rate of 7-hydroxycoumarin product formation was measured on spectrofluorometer (Shimadzu, Kyoto, Japan) at λex = 355 nm, λem = 460 nm. Inhibition effects were determined by incubation with extracts, fractions or purified compounds with coumarin substrate in the reaction mixture and calculated as per cent relative inhibition compared with vehicle control reaction[20] and IC50 values were calculated using GraphPad Prism 5 (GraphPad Software Inc., La Jolla, CA).
as §1

[6] = molecular target: T2, CYP2A13; test: Mechanism-based (time- and NADPH-dependent) inactivation of CYP2A13
Method in brief: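 Inhibitor preincubated with enzyme and NADPH for 0, 10, 20 and 30 min before the reaction. KI and Kinact derived from double reciprocal plots of kobs versus inhibitor concentration by linear regression; methoxsalen served as reference inactivator.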

[7] = molecular target: T1, CYP2A6; test: Mechanism-based (time- and NADPH-dependent) inactivation of CYP2A6; set-up: made in house
Procedure: as §1

[8] = read-out: Per cent remaining activity, 70 μM K3Fe(CN)6
[9] = read-out: Per cent remaining activity, 2 mM GSH
[10] = read-out: Per cent remaining activity, 5 mM semicarbazide
[11] = read-out: Per cent remaining activity, 2000 U catalase
[12] = read-out: Per cent remaining activity, Dialysis (+) NADPH
[13] = read-out: Per cent remaining activity, Dialysis (−) NADPH
[14] = read-out: Per cent remaining activity, Pre-incubation
[15] = time- and concentration-dependent inactivation

CC#Cc1ccc(C#CC#CC(O)CO)s1 (centres unmarked) [Thiophene 11, 2-(prop-1-inyl)-5–(5,6-dihydroxyhexa-1,3-diinyl) thiophene]
inhibition of CYP2A6-mediated nicotine metabolism [1]: showed inhibition
activity at 5 µM [2, 8]: 18.87 ± 0.18%
activity at 5 µM [2, 9]: 23.5 ± 1.72%
activity at 5 µM [2, 10]: 19.6 ± 2.73%
activity at 5 µM [2, 11]: 19.5 ± 2.95%
activity at 5 µM [2, 12]: 19.6 ± 4.21%
activity at 5 µM [2, 13]: 96.84 ± 0.73%
activity at 5 µM [2, 14]: 20.2 ± 2.76%
CYP2A13 Mode of inhibition [3]: Mixed type
IC50 ([3]; 10-min pre-incubation in the presence of NADPH, read-out: IC50 CYP2A13 Pre-incubation): 1470 ± 120 nM
IC50 ([3]; coincubation, coumarin 2 µM, read-out: IC50 CYP2A13 Coincubation): 2400 ± 330 nM
Ki ([3]; coumarin 0–40 µM): 1080 ± 50 nM
activity at 5 µM [4, 8]: 11.2 ± 2.96%
activity at 5 µM [4, 9]: 8.42 ± 0.9%
activity at 5 µM [4, 10]: 12.9 ± 3.47%
activity at 5 µM [4, 11]: 14.4 ± 1.41%
activity at 5 µM [4, 12]: 10.1 ± 1.84%
activity at 5 µM [4, 13]: 82.4 ± 2.49%
activity at 5 µM [4, 14]: 12.5 ± 1.93%
CYP2A6 Mode of inhibition [5]: Mixed type
IC50 ([5]; 10-min pre-incubation in the presence of NADPH, read-out: IC50 CYP2A6 Pre-incubation): 180 ± 10 nM
IC50 ([5]; coincubation, coumarin 2 µM, read-out: IC50 CYP2A6 Coincubation): 3900 ± 200 nM
Ki ([5]; coumarin 0–40 µM): 1800 ± 180 nM
kinact ([6]; pre-incubation 0-30 min with NADPH): 0.000833 s⁻¹
KI (inactivation) ([6]; pre-incubation 0-30 min with NADPH, read-out: CYP2A13 KI (inactivation constant)): 670 ± 80 nM
KI, CYP2A13 (in Figure 2) [6, 15]: 0.67 ± 0.08
kinact ([7]; human, recombinant human CYP2A6, probe coumarin, pre-incubation 0-30 min with NADPH): 0.00167 s⁻¹
KI (inactivation) ([7]; human, recombinant human CYP2A6, probe coumarin, pre-incubation 0-30 min with NADPH, read-out: CYP2A6 KI (inactivation constant)): 110 ± 20 nM
KI, CYP2A6 (in Figure 2) [7, 15]: 0.11 ± 0.02
